Results as given in ChEMBL document CHEMBL5053510, “Discovery of AS-1763: A Potent, Selective, Noncovalent, and Orally Available Inhibitor of Bruton's Tyrosine Kinase” (J Med Chem, 2021).
Calls of active or inactive are those of the source. No cut-off for these calls is given here.

Tests used:
Cytochrome P450 2C8 = Cytochrome P450 2C8 (Homo sapiens, UniProt P10632); test: Inhibition of CYP2C8 (unknown origin); assay type: ADME
Cytochrome P450 2C9 = Cytochrome P450 2C9 (Homo sapiens, UniProt P11712); test: Inhibition of CYP2C9 (unknown origin); assay type: ADME
[1] = molecular target: Voltage-gated inwardly rectifying potassium channel KCNH2 (Homo sapiens, UniProt Q12809); test: Inhibition of human ERG
[2] = Half life in mouse at 15 mg/kg, po; assay type: ADME, organism-based; conditions: in vivo
[3] = Half life in rat at 15 mg/kg, po; assay type: ADME, organism-based; conditions: in vivo
[4] = Half life in dog at 5 mg/kg, po; assay type: ADME, organism-based, Canis lupus familiaris; conditions: in vivo
[5] = Half life in mouse at 2 mg/kg, iv; assay type: ADME, organism-based; conditions: in vivo
[6] = Half life in rat at 2 mg/kg, iv; assay type: ADME, organism-based; conditions: in vivo
[7] = Half life in dog at 1 mg/kg, iv; assay type: ADME, organism-based, Canis lupus familiaris; conditions: in vivo
[8] = Tmax in mouse at 15 mg/kg, po; assay type: ADME, organism-based; conditions: in vivo
[9] = Tmax in rat at 15 mg/kg, po; assay type: ADME, organism-based; conditions: in vivo
[10] = Tmax in dog at 5 mg/kg, po; assay type: ADME, organism-based, Canis lupus familiaris; conditions: in vivo
[11] = Initial plasma concentration in mouse at 2 mg/kg, iv; assay type: ADME, organism-based
[12] = Initial plasma concentration in mouse at 15 mg/kg, po; assay type: ADME, organism-based; conditions: in vivo
[13] = Initial plasma concentration in rat at 2 mg/kg, iv; assay type: ADME, organism-based
[14] = Initial plasma concentration in rat at 15 mg/kg, po; assay type: ADME, organism-based; conditions: in vivo
[15] = Initial plasma concentration in dog at 1 mg/kg, iv; assay type: ADME, organism-based, Canis lupus familiaris
[16] = Initial plasma concentration in dog at 5 mg/kg, po; assay type: ADME, organism-based, Canis lupus familiaris; conditions: in vivo
[17] = AUC (0 to last) in mouse at 2 mg/kg, iv; assay type: ADME, organism-based; parameters: time 0 - last, dose 2 mg/kg, route iv; conditions: in vivo
[18] = AUC (0 to last) in mouse at 15 mg/kg, po; assay type: ADME, organism-based; parameters: time 0 - last, dose 15 mg/kg, route po; conditions: in vivo
[19] = AUC (0 to last) in rat at 2 mg/kg, iv; assay type: ADME, organism-based; parameters: time 0 - last, dose 2 mg/kg, route iv; conditions: in vivo
[20] = AUC (0 to last) in rat at 15 mg/kg, po; assay type: ADME, organism-based; parameters: time 0 - last, dose 15 mg/kg, route po; conditions: in vivo
[21] = AUC (0 to last) in dog at 1 mg/kg, iv; assay type: ADME, organism-based, Canis lupus familiaris; parameters: time 0 - last, dose 1 mg/kg, route iv; conditions: in vivo
[22] = AUC (0 to last) in dog at 5 mg/kg, po; assay type: ADME, organism-based, Canis lupus familiaris; parameters: time 0 - last, dose 5 mg/kg, route po; conditions: in vivo
[23] = Volume of distribution at steady state in mouse at 2 mg/kg, iv; assay type: ADME, organism-based; conditions: in vivo, read-out: Vdss
[24] = Volume of distribution in steady state rat at 2 mg/kg, iv; assay type: ADME, organism-based; conditions: in vivo, read-out: Vdss
[25] = Volume of distribution at steady state in dog at 2 mg/kg, iv; assay type: ADME, organism-based, Canis lupus familiaris; conditions: in vivo, read-out: Vdss
[26] = Clearence in mouse at 2 mg/kg, iv; assay type: ADME, organism-based; conditions: in vivo
[27] = Clearence in rat at 2 mg/kg, iv; assay type: ADME, organism-based; conditions: in vivo
[28] = Clearence in dog at 1 mg/kg, iv; assay type: ADME, organism-based, Canis lupus familiaris; conditions: in vivo
[29] = Oral bioavailability in mouse at 15 mg/kg; assay type: ADME, organism-based; conditions: in vivo
[30] = Oral bioavailability in rat at 15 mg/kg; assay type: ADME, organism-based; conditions: in vivo
[31] = Oral bioavailability in dog at 5 mg/kg; assay type: ADME, organism-based, Canis lupus familiaris; conditions: in vivo
OCI-Ly10 [32] = test: Antitumor activity against human OCILY10 cells xenografted in SCID mouse assessed as tumor growth inhibition at 6 mg/kg, po bid measured after 63 days; assay type: functional; conditions: OCI-Ly10, 1512 h, time 63 day, read-out: TGI
OCI-Ly10 [33] = test: Antitumor activity against human OCILY10 cells xenografted in SCID mouse assessed as tumor growth inhibition at 20 mg/kg, po bid measured after 63 days; assay type: functional; conditions: OCI-Ly10, 1512 h, time 63 day, read-out: TGI
OCI-Ly10 [34] = test: Antitumor activity against human OCILY10 cells in SCID mouse assessed as tumor growth inhibition at 60 mg/kg, po bid measured after 63 days; assay type: functional; conditions: OCI-Ly10, 1512 h, time 63 day, read-out: TGI
OCI-Ly10 [35] = test: Antitumor activity against human ibrutinib-resistant BTK[C481S] knock-in OCILY10 cells in SCID mouse assessed as tumor growth inhibition at 60 mg/kg, po bid measured after 63 days; assay type: functional; conditions: OCI-Ly10, 1512 h, time 63 day, read-out: TGI
Mus musculus = organism: Mus musculus; test: Toxicity in SCID mouse harboring human OCILY10 cells harboring BTK C481S mutant […] gene assessed as body weight loss; assay type: organism-based
[36] = molecular target: Tyrosine-protein kinase BTK (Mus musculus) (UniProt P35991); test: Inhibition of BTK in […] mouse blood assessed as reduction in BTK phosphorylation at Tyr223 residue at 15 mg/kg, po measured after 8 hrs; assay type: organism-based
[37] = molecular target: Tyrosine-protein kinase BTK (Mus musculus) (UniProt P35991); test: Inhibition of BTK in […] mouse blood assessed as reduction in BTK phosphorylation at Tyr223 residue at 30 mg/kg, po measured after 8 hrs; assay type: organism-based
[38] = molecular target: Tyrosine-protein kinase BTK (Mus musculus) (UniProt P35991); test: In vivo inhibition of autophosphorylation of BTK at Y223 in mouse at 7.5 to 30 mg/kg, po measured up to 8 hrs by Western blot analysis; assay type: functional, organism-based; conditions: dose 7.5-30 mg/kg

Chain of Tyrosine-protein kinase BTK (Mus musculus) (P35991 whole entry): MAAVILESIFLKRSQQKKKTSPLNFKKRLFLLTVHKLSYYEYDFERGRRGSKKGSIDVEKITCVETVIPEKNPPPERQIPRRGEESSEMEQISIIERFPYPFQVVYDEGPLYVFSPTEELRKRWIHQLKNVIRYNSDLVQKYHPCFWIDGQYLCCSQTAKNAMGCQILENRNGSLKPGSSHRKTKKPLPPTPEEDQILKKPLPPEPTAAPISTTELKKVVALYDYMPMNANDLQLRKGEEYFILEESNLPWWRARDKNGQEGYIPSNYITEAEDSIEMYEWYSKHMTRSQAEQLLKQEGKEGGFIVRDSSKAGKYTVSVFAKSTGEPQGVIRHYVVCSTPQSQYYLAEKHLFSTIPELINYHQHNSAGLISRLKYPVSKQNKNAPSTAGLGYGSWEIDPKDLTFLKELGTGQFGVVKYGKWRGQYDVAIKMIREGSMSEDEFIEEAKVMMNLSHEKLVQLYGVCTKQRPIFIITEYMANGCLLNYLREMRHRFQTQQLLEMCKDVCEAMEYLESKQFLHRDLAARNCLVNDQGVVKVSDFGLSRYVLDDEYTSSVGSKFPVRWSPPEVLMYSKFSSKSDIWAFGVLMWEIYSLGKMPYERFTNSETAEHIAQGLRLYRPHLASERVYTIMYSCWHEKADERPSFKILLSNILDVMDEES
Chain of Voltage-gated inwardly rectifying potassium channel KCNH2 (Q12809 whole entry): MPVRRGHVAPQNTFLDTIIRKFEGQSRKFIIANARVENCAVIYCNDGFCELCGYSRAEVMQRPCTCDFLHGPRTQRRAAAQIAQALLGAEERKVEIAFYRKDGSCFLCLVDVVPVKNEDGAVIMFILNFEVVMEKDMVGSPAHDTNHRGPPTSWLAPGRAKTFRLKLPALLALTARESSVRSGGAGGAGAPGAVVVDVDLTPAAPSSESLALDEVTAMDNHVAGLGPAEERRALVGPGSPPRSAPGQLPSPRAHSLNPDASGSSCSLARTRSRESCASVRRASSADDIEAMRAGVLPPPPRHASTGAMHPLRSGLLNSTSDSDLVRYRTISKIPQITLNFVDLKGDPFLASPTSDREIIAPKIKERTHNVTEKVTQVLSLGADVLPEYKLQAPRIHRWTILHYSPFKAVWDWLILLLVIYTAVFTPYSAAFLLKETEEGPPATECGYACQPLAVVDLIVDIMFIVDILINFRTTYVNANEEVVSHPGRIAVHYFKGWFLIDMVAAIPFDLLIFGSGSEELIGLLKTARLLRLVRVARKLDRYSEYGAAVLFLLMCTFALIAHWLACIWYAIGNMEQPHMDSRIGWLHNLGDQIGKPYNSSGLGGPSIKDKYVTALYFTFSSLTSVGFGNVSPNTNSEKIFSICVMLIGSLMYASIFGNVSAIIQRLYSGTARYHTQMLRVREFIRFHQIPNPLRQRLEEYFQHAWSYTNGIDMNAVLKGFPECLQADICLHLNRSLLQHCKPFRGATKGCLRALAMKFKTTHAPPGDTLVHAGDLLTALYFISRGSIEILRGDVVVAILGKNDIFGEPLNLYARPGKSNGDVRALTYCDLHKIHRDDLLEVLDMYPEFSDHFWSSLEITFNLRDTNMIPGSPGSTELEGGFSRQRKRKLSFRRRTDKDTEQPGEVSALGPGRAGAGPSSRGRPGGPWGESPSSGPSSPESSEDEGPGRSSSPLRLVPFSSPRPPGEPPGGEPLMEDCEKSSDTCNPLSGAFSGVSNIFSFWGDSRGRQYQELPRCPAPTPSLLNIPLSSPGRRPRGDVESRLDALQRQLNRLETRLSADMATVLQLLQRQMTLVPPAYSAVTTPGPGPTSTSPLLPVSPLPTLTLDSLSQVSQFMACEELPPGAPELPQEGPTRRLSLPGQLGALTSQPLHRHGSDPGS
Chain of Cytochrome P450 2C8 (P10632 whole entry): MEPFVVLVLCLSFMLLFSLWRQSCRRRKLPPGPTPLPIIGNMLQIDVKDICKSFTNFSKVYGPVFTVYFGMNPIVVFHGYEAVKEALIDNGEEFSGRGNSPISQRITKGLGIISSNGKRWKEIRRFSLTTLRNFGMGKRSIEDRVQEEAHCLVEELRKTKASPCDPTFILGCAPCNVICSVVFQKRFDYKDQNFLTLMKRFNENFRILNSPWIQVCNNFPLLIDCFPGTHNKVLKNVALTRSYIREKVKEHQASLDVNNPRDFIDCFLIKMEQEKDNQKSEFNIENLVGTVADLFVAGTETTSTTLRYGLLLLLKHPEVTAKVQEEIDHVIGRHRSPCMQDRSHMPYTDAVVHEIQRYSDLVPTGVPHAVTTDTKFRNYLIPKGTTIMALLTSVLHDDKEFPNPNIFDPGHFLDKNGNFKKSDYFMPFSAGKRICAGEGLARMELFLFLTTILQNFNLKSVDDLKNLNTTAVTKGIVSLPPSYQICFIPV
Chain of Cytochrome P450 2C9 (P11712 whole entry): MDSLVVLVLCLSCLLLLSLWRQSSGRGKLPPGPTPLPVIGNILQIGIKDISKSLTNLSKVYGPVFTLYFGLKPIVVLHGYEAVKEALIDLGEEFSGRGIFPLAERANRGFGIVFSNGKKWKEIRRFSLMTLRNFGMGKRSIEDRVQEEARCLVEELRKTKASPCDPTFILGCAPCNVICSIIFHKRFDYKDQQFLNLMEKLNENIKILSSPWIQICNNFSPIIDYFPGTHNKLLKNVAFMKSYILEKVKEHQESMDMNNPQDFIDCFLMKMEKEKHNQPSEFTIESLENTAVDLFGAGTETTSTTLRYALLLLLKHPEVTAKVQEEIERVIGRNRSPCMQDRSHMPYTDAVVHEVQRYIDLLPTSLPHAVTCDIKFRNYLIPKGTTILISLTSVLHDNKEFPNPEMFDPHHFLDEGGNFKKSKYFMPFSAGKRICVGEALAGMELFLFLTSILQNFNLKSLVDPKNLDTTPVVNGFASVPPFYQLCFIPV

Nc1nc(-c2cccc(-n3ccc4cc(C5CC5)cc(F)c4c3=O)c2CO)c2cc(C3=CCN(C4COC4)CC3)[nH]c2n1 [MILREBRUTINIB]
IC50 (Cytochrome P450 2C8): 3.17 µM
IC50 (Cytochrome P450 2C9): 5.38 µM
IC50 [1]: 8.54 µM
half-life [2]: 2.25 h
half-life [3]: 3.56 h
half-life [4]: 1.9 h
half-life [5]: 1.12 h
half-life [6]: 2.65 h
half-life [7]: 1.29 h
Tmax [8]: 2 h
Tmax [9]: 2 h
Tmax [10]: 0.833 h
C0 [11]: 972 ng/mL
C0 [12]: 1717 ng/mL
C0 [13]: 874 ng/mL
C0 [14]: 418 ng/mL
C0 [15]: 1280 ng/mL
C0 [16]: 896 ng/mL
AUC(0-t) [17]: 1750 ng·h/mL
AUC(0-t) [18]: 8060 ng·h/mL
AUC(0-t) [19]: 1650 ng·h/mL
AUC(0-t) [20]: 1870 ng·h/mL
AUC(0-t) [21]: 734 ng·h/mL
AUC(0-t) [22]: 2490 ng·h/mL
Vd [23]: 1.61 L/kg
Vd [24]: 3.64 L/kg
Vd [25]: 1.77 L/kg
clearance [26]: 18.8 mL/min/kg
clearance [27]: 20.3 mL/min/kg
clearance [28]: 22.7 mL/min/kg
bioavailability [29]: 60.8%
bioavailability [30]: 15.9%
bioavailability [31]: 68.1%
inhibition in vivo at 6 mg/kg (OCI-Ly10 [32]): 74.5%
inhibition in vivo at 20 mg/kg (OCI-Ly10 [33]): 81.6%
inhibition in vivo at 60 mg/kg (OCI-Ly10 [34]): 112%
inhibition in vivo at 60 mg/kg (OCI-Ly10 [35]): 73%
Activity (Mus musculus): Non-Toxic
inhibition [36]: Active
inhibition [37]: Active
inhibition [38]: Active
